Measured values as given in patent US20260240958A1, “REPRESSOR FUSION PROTEIN SYSTEMS” (Scribe Therapeutics Inc., priority 2023, published 2026).

Columns and labels:
[1] = system: B2M gene; test: B2M reactivation by DNMT1 inhibitor 5-azadC in transfected HEK293T cells cultured for 58 days; assay type: cell-based, human; conditions: HEK293T transfected with construct + B2M-targeting gRNA; 0 to 20 μM 5-azadC
Text: LTRP configuration 5 containing the ZIM3-KRAB domain, which was generated as described in Example 1, and CasX variant 491 were used in this experiment. A B2M-targeting gRNA with scaffold 174 containing spacer 7.37 (SEQ ID NO: 1904) or a non-targeting gRNA containing spacer 0.0 (SEQ ID NO: 1906) were used in this experiment.

[2] = system: human PCSK9 locus; test: Secreted PCSK9 dose response (IC50, IC90, Emax) in primary human hepatocytes treated with LNPs; assay type: cell-based; conditions: day 5
Description: PCSK9 knockdown in primary human hepatocytes, provided an experimental basis for lipofection of gRNA comprising one of the four top editing targeting sequences (Table 59) into PHH cells for assessment of PCSK9 secretion and mRNA reduction. Dose response curves were generated from two lots of PHH cells with three rounds of triplicate wells for each condition. The highest tested dose, 2400 ng/well total encapsulated RNA, was used to measure mRNA expression changes between treated and naïve cells via RNA-seq.
Two lots (lot #271 and lot #31) of primary human hepatocytes (Lonza Biologics) were plated at density of 65K cells/well. Twenty-four hours later, plates were stamped with the indicated total encapsulated RNA dose of single formulations ALC-0315 LNP (1:1 ratio, pre-incubated with human serum overnight) at the indicated dose in triplicate wells for each condition. Doses tested for each mRNA:gRNA pair (Table 60) were 2400, 800, 270, 90, 30, 10, 0.1, and 0.01 ng/well total encapsulated RNA. […]
Secreted PCSK9 levels in the media supernatant were analyzed using the BioLegend® ELISA MAX™ kit following the manufacturer's instructions.
(§1) The ability of pairs of mRNA:gRNA comprising scaffold 316 and an PCSK9-targeting sequence to reduce secretion of PCSK9 and PCSK9 mRNA reduction was assessed. […]

[3] = system: PCSK9 mRNA; test: PCSK9 mRNA RT-qPCR dose response (IC50, IC90, Emax) in primary human hepatocytes treated with LNPs; assay type: cell-based; conditions: day 5
Description: Two lots (lot #271 and lot #31) of primary human hepatocytes (Lonza Biologics) were plated at density of 65K cells/well. Twenty-four hours later, plates were stamped with the indicated total encapsulated RNA dose of single formulations ALC-0315 LNP (1:1 ratio, pre-incubated with human serum overnight) at the indicated dose in triplicate wells for each condition. Doses tested for each mRNA:gRNA pair (Table 60) were 2400, 800, 270, 90, 30, 10, 0.1, and 0.01 ng/well total encapsulated RNA.
For rounds 1 and 2, cells were immediately lysed in 100 uL DNA RNA shield™ and stored at […] after the day 5 media collection.
Extracted mRNA was processed and analyzed by RT-qPCR. Measurement ofPCSK9 mRNA expression is performed using a single-step RT-qPCR approach. 50 uL lysate was used to extract total RNA using Zymo 96 RNA extraction kits. Total RNA was then reverse transcribed into cDNA and PCSK9 transcript quantified in reference to a GAPDH endogenous control by quantitative PCR using TaqMan probes. Percent change in mRNA was calculated by comparing to samples treated with a non-targeting sequence.
as §1

[4] = system: human PCSK9 locus; test: Secreted PCSK9 ELISA in Huh7 cells transfected with mRNA and gRNA; assay type: cell-based; conditions: for normalized secreted PCSK9 level: days 6, 18, 36
Description: The following three human hepatocyte cancer cell lines were used in this experiment: HepG2 cells, Hep3B cells, and Huh7 cells. ~15,000 cells of each cell line were seeded in each well of a 96-well plate. The next day, seeded cells were transfected with mRNA encoding a catalytically-active CasX 676, dXR1, or LTRP5-ADD-ZIM3 and a gRNA with scaffold 316 and spacer targeting either the B2M or PCSK9 locus (see Table 12 for specific spacers and sequences). Media supernatant was harvested at 4 days post-transfection to assess level of PCSK9 secretion by ELISA, and levels of PCSK9 secretion were normalized to total cell count, as illustrated in FIGS. 2A-2C. Culturing of treated Huh7 cells continued, and media supernatant was harvested at 14 and 27 days post-transfection for measuring PCSK9 secretion by ELISA. As an additional experimental control, PCSK9 secretion was also measured in the media supernatant harvested from wells containing untreated, naïve cells.
To assess PCSK9 secretion, seeded Huh7 cells were transfected with mRNA encoding a catalytically-active CasX 676, dXR1, or LTRP5-ADD-ZIM3 and a gRNA with scaffold 316 and a spacer targeting either the B2M or PCSK9 locus. Media supernatant was harvested at 6, 18, and 36 days post-transfection to assess level of PCSK9 secretion by ELISA. Levels of PCSK9 secretion were normalized to total cell count. As an additional control, PCSK9 secretion was also measured in the media supernatant harvested from wells containing untreated, naïve cells.

[5] = system: mouse PCSK9 locus; test: Intracellular PCSK9 staining by flow cytometry in Hepa1-6 cells lipofected with mRNA and PCSK9-targeting gRNA; assay type: cell-based
Description: Transfection of mRNA and gRNA into Hepa1-6 cells and intracellular PCSK9 staining were performed as described in Example 6. Briefly, each well of seeded Hepa1-6 cells was transfected with 300 ng of mRNA encoding LTRP5-ZIM3 or LTRP5-ADD-ZIM3 and 150 ng of PCSK9-targeting gRNA with spacer 27.88 or 27.94. Intracellular levels of PCSK9 protein were measured at various timepoints, up to day 53 post-transfection using an intracellular staining protocol as described earlier in Example 6. A non-targeting gRNA was used as an experimental control.
Seeded Hepa1-6 cells treated with the NATE™ inhibitor were lipofected with 300 ng of mRNA encoding dXR1 or LTRP1-ZIM3 (Table 36) and 150 ng of a PCSK9-targeting gRNA (Table 37). Seven different gRNAs with spacers spanning the promoter region of the mouse PCSK9 locus were tested, in addition to a sequence complementary to the human PCSK9 gene that served as the non-targeting control (Table 37). Cells were harvested at 6, 13, and 25 days after transfection to measure intracellular levels of the PCSK9 protein using an intracellular flow cytometry staining protocol. Briefly, cells were fixed using 4% paraformaldehyde in PBS, permeabilized, and stained using a mouse anti-PCSK9 primary antibody (R&D Systems), followed by a fluorescent goat anti-mouse IgG secondary antibody (Thermo Fisher). Fluorescence levels were measured using the Attune™ NxT flow cytometer, and data were analyzed using the FlowJo™ software. Cell populations were gated using the non-targeting gRNA as a negative control.
Seeded Hepa1-6 cells treated with the NATE™ inhibitor were lipofected with 300 ng of mRNA encoding LTRP1-ZIM3, LTRP5-ZIM3, catalytically-active CasX 491, or dCas9-ZNF10-DNMT3A/3L, and 150 ng of PCSK9-targeting gRNA (Table 37). Intracellular levels of PCSK9 protein were measured at day 7, 14, 21, 36, and 71 days post-transfection using an intracellular staining protocol as described for experiment #1.

Nc1ncn([C@H]2C[C@H](O)[C@@H](CO)O2)c(=O)n1 [5-azadC, 5-aza-2′-deoxycytidine]
reactivation of the B2M gene upon 5-azadC treatment [1]: resulted in a reactivation of the B2Mgene

TG-06-154: NHP-conserved TSS-proximal TTC spacer targeting the human PCSK9 locus (Table 40) (guide AGGGUGUGGGUGCUUGACGC; spacer within gRNA, v1 profile: 2'-OMe and phosphorothioate on first and last three gRNA nucleotides, further chemistry not given here)
potency in reducing secreted PCSK9 protein [2]: the most potent LTRP spacer
potency in reducing PCSK9 mRNA levels [3]: the most potent LTRP spacer

TG-06-352: spacer targeting human PCSK9, positioned beyond the 1100 bp threshold window (guide UCCCUCACCAAUUACCCCUC; spacer within gRNA, v1 profile: 2'-OMe and phosphorothioate on first and last three gRNA nucleotides, further chemistry not given here)
normalized secreted PCSK9 level ([4]; Huh7, spacer paired with LTRP5-ADD-ZIM3, compared with spacer 6.1 paired with CasX 676 and controls): effective repression

dXR1: dCasX fused to ZIM3-KRAB; protein SEQ ID NO 2008
degree of PCSK9 repression compared with LTRP1-ZIM3 ([5]; day 6, e.g. spacers 27.92 and 27.100): the degree of repression was less substantial when paired with certain spacers
persistence of PCSK9 repression ([5]; days 6, 13, 25): transient repression
repression of PCSK9 secretion relative to naïve control at day 4 ([4]; Huh7, spacer 6.138, days 4, 14, 27): initial strong repression at day 4, this repressive effect was transient
normalized secreted PCSK9 level ([4]; Huh7, spacer 6.138): transient repression
knockdown of PCSK9 secretion (normalized to total cell count) ([4]; Huh7 compared with HepG2 and Hep3B cells, 4 days post-transfection): most efficient knockdown of PCSK9 secretion

spacer 27.94: gRNA spacer targeting the mouse PCSK9 locus, SEQ ID NO 2014 (guide CCCCUCUUAAUCCCCACUCC; listed as RNA, chemistry not given here)
durability of PCSK9 repression ([5]; paired with LTRP5-ZIM3 or LTRP5-ADD-ZIM3 mRNA, day 53): more durable repression than use of spacer 27.88
